Measured values reported in US20250136593A1, “DEGRADATION AGENT AND USE THEREOF” (HITGEN INC., priority 2021, published 2025).

Columns and labels:
[1] = target: T1, BCL-XL protein in MOLT-4 cells (Homo sapiens, UniProt Q07817); experiment: Degradation effect on BCL-XL protein in MOLT-4 cells by Western Blot; format: cell-based; details: 24 hours incubation, corrected by β-actin, read-out: DC50 concentration for BCL-XL protein degradation
T1 construct: host or cells: MOLT-4
Protocol: Experimental Example 6. Experiment to Evaluate Degradation Effect of Compound on BCL-XL Protein in MOLT-4 Cells by Western Blot Method
SDS-PAGE gel (4-12%) (Genscript), PMSF 100 mM (Biyotime), Cocktail 100× (Biyotime), P/S, RPMI medium modified (Hyclone), FBS (Corning), 4× loading buffer (Thermo), Bcl-xL (54H6) Rabbit mAb (CST), Anti-rabbit IgG-HRP (CST), Anti-β-actin-HRP (Abcam), RIPA (Biyotime), Tween-20, MOLT-4 cell (ATCC), BCA Protein Assay Kit (TIANGEN), Immobilon Western Chemilunescent HRP Substrate (Millipore).
1) Incubation of compound and cells: 1 mL of 10^6 MOLT-4 cells (culture medium: 89% RPMI, 10% FBS, 1% P/S) was inoculated in a 6-well cell culture plate, the compound was subjected to gradient dilution with DMSO, then the compound diluted in DMSO in gradient was diluted again into the MOLT-4 medium, and 1 mL of the diluted compound was directly added to the 6-well plate with the cultured cells and incubated for 24 hours.
2) Protein extraction: After the compound and the cells were co-incubated for 24 hours, the cells were collected and placed in a 1.5 mL centrifuge tube, washed twice with ice-cold PBS, the supernatant was discarded, then 150 μL of RIPA lysis buffer was added and lysis was carried out on ice for 30 minutes; then the cell lysate was centrifuged in a low-temperature centrifuge at 15,000 rpm for 10 minutes, and the supernatant was collected; and BCA Protein Assay Kit was used to quantify the protein in the resulting cell lysate supernatant. 4× loading buffer was added to the cell lysate supernatant and incubated at 85° C. for 10 minutes to obtain a sample. The obtained sample was stored in −80° C. refrigerator for the use on the next day. 20 μg of the sample was taken to perform SDS-Page and transmembrane, 5% skim milk was used to block the membrane for 1 hour, and then Bcl-xL (54H6) rabbit mAb, Anti-rabbit IgG-HRP, Anti-β-actin-HRP were used for incubation. After incubation, Immobilon Western Chemiluminescent HRP Substrate was used for color development, and a gel analyzer was used for analysis.
Analysis was performed with a grayscale analysis software, the amount of BCL-XL protein was corrected by the amount of β-actin, and then Graphpad 6 was used to calculate DC50.

MOLT-4 cells = experiment: Inhibitory activity on MOLT4 cell proliferation by Cell Titer-Glo method; format: cell-based; details: Homo sapiens, 72 hours incubation, read-out: IC50 concentration for inhibiting MOLT-4 cells
Protocol: Experimental Example 5, Evaluation Experiment of Inhibitory Activity of Compound on MOLT4 Cell Proliferation by Cell Titer-Glo Method
RPMI medium modified (Hyclone), FBS (Corning), Dimethyl Sulfoxide, P/S, CellTiter-Gbo Luminescent Cell Viability Assay (Promega), MOLT-4 cell (ATCC).
MOLT-4 cells were cultured in monolayer in vitro in an incubator containing 5% CO2 air at 37° C. The culture medium was RPMI 1640 with 10% FBS and 1% P/S. 15 μL of MOLT4 cells, containing 5×10^4 cells per ml, was inoculated to a 384-well plate (Corning, 3707), 750 cells/well, and incubated at 37° C. and 5% CO2 for 30 minutes. Then the compound that had been diluted in advance was added, with a total of 9 concentration points, and 2 parallel repetitions for each concentration point. The cell growing group without adding the compound was used as a negative control (maximum signal control), and the culture medium group was used as a blank control (minimum signal control). At the same time, it was ensured that the final DMSO content in each reaction well was 0.1%. The compound and the cells were incubated in a cell culture incubator at 37° C., 5% CO2 for 3 days (72 hours).
The 384-well plate was taken out from the cell culture incubator and allowed to stand at room temperature, equilibrated for 20 to 30 minutes, and then 25 μl of Cell Titer-Glo detection reagent was added to each reaction well, lysed on a shaker for 2 minutes, incubated for 10 minutes, and BMG PHERAStar (Luminescence) was used for reading.
The inhibition rate was calculated based on the luminescence signals: the average value of the negative control (maximum signal control) and the blank control (minimum signal control) was first calculated, then the inhibition rates of the compound at different concentrations for the cells were calculated as follows:
The IC50 of the compound to inhibit cell activity was calculated by fitting with GraphPad Prism 6 using log(inhibitor) vs. response−Variable slope mode. The fitting equation was: Y=Bottom+(Top−Bottom)/(1+10^((LogIC50−X)*HillSlope)), wherein Y represented the inhibition rate and X represented the known compound concentration after Log.

[2] = target: ternary complex between BCL-XL and CRBN-DDB1 (Homo sapiens, UniProt Q07817+Q96SW2); experiment: Compound-induced formation of ternary complex between BCL-XL and CRBN-DDB1 by AlphaLISA; format: biochemical; design: key: the number of + indicates the intensity of AlphaLISA peak signal; ++: the number of + indicates the intensity of AlphaLISA peak signal; +++: the number of + indicates the intensity of AlphaLISA peak signal; ++++: the number of + indicates the intensity of AlphaLISA peak signal; +++++: the number of + indicates the intensity of AlphaLISA peak signal; details: peak signal; 60 nM Strep-BCL-XL and 60 nM His-CRBN/DDB1
Protocol: Experimental Example 4, Detection of Compound-Induced Formation of Ternary Complex Between BCL-XL and CRBN-DDB1 by AlphaLISA Method
Na2HPO4(Sigma), NaH2PO4(Sigma), sodium chloride (Sigma), Tween-20 (Sigma), AlphaLISA®Nikel Chelate Acceptor beads (PerkinElmer), Strep-Tactin® Alpha Donor beads (PerkinElmer), Assay plate (Corning), Strep-BCl-XL (HitGen), His-CRBN/DDB1 (HitGen).
DMSO was used to dissolve the dry powder of the test compound to obtain a 10.00 mM solution. The instrument ECHO was used to perform gradient dilution of the compound, which was then added to a 384-well reaction plate (Corning, Cat #3824), so that the final concentration of DMSO in the entire reaction system (10.0 μL) was less than 1%, and the same amount of DMSO was added and used as a control.
Strep-BCl-XL and His-CRBN/DDB1 proteins were dissolved in buffer (10 mM NaH2PO4, 40 mM Na2HPO4, 150 mM sodium chloride, 0.03% Tween20, pH=7.4) to obtain a protein mixture of 60 nM Strep-BCL-XL and 60 nM His-CRBN/DDB1, the protein mixture (5ul/well) was added to the 384-well plate in which the compound had been added, and incubated at room temperature for 30 minutes, then 5 μl of a detection mixture with 50 μg/ml AlphaLISA®Nikel Chelate Acceptor beads and 50 μg/ml Strep-Tactin® Alpha Donor beads was added, and incubated at room temperature for 2 hours; and then a microplate reader was used to detect AlphaLISA signal.
Fifth order polynomial or Sixth order polynomial in Polynomial of Graphpad 6.0 was used for data fitting.

T1 sequence (Q07817 whole entry): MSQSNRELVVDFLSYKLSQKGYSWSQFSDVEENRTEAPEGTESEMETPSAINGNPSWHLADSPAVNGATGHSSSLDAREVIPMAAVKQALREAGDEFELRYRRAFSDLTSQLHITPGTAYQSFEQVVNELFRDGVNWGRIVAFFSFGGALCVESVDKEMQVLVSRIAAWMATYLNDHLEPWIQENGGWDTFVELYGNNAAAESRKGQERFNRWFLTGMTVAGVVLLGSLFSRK
Sequence of ternary complex between BCL-XL and CRBN-DDB1 (Q07817 whole entry): as above
Sequence of ternary complex between BCL-XL and CRBN-DDB1 (Q96SW2 whole entry): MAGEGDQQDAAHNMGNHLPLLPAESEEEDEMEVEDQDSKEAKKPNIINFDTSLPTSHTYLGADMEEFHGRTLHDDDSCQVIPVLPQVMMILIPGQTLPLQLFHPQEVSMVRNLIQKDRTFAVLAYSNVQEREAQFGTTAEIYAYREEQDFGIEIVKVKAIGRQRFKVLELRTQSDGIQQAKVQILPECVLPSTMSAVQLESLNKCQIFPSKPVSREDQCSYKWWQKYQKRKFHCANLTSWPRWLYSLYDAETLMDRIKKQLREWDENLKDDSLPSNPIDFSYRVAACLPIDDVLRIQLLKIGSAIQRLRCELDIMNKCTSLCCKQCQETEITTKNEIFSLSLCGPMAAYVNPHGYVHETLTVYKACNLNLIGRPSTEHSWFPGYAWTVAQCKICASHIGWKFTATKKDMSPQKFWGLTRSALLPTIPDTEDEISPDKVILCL
Sequence of ternary complex between BCL-XL and CRBN-DDB1 (Q16531 whole entry partner): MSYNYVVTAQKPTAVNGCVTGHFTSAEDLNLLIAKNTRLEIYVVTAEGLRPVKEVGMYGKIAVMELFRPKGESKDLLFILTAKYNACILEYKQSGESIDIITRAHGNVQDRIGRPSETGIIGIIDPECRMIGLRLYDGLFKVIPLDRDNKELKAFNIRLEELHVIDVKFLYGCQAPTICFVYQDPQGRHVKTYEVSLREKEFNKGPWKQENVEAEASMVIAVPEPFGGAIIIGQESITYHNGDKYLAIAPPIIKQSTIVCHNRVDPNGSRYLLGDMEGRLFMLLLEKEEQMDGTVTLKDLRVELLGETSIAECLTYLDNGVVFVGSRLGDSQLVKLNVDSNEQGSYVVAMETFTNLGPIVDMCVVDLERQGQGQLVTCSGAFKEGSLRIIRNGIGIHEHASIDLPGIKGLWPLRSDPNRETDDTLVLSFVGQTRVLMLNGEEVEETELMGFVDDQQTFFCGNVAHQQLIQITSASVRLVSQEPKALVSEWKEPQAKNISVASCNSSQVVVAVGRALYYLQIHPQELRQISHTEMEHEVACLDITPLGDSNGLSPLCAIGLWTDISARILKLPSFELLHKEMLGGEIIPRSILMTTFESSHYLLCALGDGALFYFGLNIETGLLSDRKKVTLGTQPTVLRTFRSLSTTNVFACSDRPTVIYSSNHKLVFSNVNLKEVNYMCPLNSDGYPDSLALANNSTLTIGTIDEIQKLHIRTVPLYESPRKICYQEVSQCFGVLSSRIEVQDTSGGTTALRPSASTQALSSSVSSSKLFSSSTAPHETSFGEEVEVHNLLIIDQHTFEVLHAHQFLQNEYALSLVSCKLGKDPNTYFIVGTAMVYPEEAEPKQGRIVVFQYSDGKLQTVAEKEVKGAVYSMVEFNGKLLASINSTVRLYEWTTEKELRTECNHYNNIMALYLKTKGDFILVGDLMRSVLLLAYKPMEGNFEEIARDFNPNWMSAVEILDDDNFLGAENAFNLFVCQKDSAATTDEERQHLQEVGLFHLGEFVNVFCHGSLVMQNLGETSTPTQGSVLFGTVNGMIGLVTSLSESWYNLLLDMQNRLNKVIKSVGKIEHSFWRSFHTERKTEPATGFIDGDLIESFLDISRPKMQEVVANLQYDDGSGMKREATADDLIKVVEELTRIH

SMILES | DC50 [1] [µM] | IC50 (MOLT-4 cells) [µM] | AlphaLISA signal (PROTAC ternary complex signal intensity) [2]
CNc1nc(-c2cnc3ccccc3c2)nc2c1CCN(C(=O)c1ccc(/C=C/c3ccc(C#CCN4CCN(CCC#Cc5cccc(C6CCC(=O)NC6=O)c5)CC4)cc3)cc1)C2 (centres unmarked) [Compound D2-15] | 1 to 10 | < 1 | 
O=C1CCC(N2C(=O)c3ccc(N4CCN(CC5CCN(CC#Cc6ccc(/C=C/c7ccc(C(=O)N8CCc9cnc(-c%10cnc%11ccccc%11c%10)nc9C8)cc7)cc6)CC5)CC4)cc3C2=O)C(=O)N1 (centres unmarked) [Compound F1B-2] | 50 to 100 | 50 to 100 | +
CNc1nc(-c2cnc3ccccc3c2)nc2c1CCN(C(=O)c1ccc(/C=C/c3ccc(C#CCN4CCC(CN5CCN(c6cc7c(cc6F)C(=O)N(C6CCC(=O)NC6=O)C7=O)CC5)CC4)cc3)cc1)C2 (centres unmarked) [Compound F1B-3] | 1 to 10 | 50 to 100 | 
O=C1CCC(N2Cc3cc(N4CCC(CN5CCN(CC#Cc6ccc(/C=C/c7ccc(C(=O)N8CCc9cnc(-c%10cnc%11ccccc%11c%10)nc9C8)cc7)cc6)CC5)CC4)ccc3C2=O)C(=O)N1 (centres unmarked) [Compound F2-4] | 1 to 10 | 1 to 10 | ++
CNc1nc(-c2cnc3ccccc3c2)nc2c1CCN(C(=O)c1ccc(/C=C/c3ccc(C#CCN4CCN(CC5CCN(c6ccc7c(c6)CN(C6CCC(=O)NC6=O)C7=O)CC5)CC4)cc3)cc1)C2 (centres unmarked) [Compound F2-8] | < 1 | 1 to 10 | 
O=C1CCC(N2Cc3cc(N4CCC(CN5CCN(CC#Cc6ccc(OCC78CC(C(=O)N9CCc%10cnc(-c%11cnc%12ccccc%12c%11)nc%10C9)(C7)C8)cc6)CC5)CC4)ccc3C2=O)C(=O)N1 (centres unmarked) [Compound F2-9] | 1 to 10 | 50 to 100 | 
CNc1nc(-c2cnc3ccccc3c2)nc2c1CCN(C(=O)c1ccc(/C=C/c3ccc(C#CCN4CCN(CC5CCN(c6ccc7c(c6)C(=O)N(C6CCC(=O)NC6=O)C7=O)CC5)CC4)cc3)cc1)C2 (centres unmarked) [Compound F2-11] | 1 to 10 | 50 to 100 | 
O=C1CCC(N2Cc3c(CN4CC5(C4)CN(C4CCN(CC#Cc6ccc(/C=C/c7ccc(C(=O)N8CCc9cnc(-c%10cnc%11ccccc%11c%10)nc9C8)cc7)cc6)CC4)C5)cccc3C2=O)C(=O)N1 (centres unmarked) [Compound F3B-3] | < 1 | 1 to 10 | ++
CNc1nc(-c2cnc3ccccc3c2)nc2c1CCN(C(=O)c1ccc(/C=C/c3ccc(C#CCN4CCN(C(=O)CC(=O)N[C@H](C(=O)N5C[C@H](O)C[C@H]5C(=O)N[C@@H](C)c5ccc(-c6scnc6C)cc5)C(C)(C)C)CC4)cc3)cc1)C2 [Compound G2-1] |  | > 200 | ++
CNc1nc(-c2cnc3ccccc3c2)nc2c1CCN(C(=O)c1ccc(/C=C/c3ccc(C#CCN4CCN(CCC#Cc5cccc(N6CCC(=O)NC6=O)c5)CC4)cc3)cc1)C2 [Compound H1-1] | < 1 | < 1 | 
